Measured values as given in patent EP0614464B1, “PEPTIDES AND ANTIBODIES FOR TREATMENT OF RHEUMATOID ARTHRITIS” (PEPTIDE THERAPEUTICS LIMITED, priority 1991, dated 1993).

Key:
IgA-α1AT complex = assay: HPLC analysis of in vitro dissociation of purified IgA-α1AT complex; format: biochemical, human; conditions: Table 5; minimum concentration giving complex : free IgA ratio at 20% (base-line 14%); 90 minutes at 37°C; >500µM = no complex dissociation at highest concentration tested
Description: The ability of the peptides of the invention to dissociate purified IgA-α1AT complex in vitro was tested as described below. The anti-rheumatic drug D-penicillamine and other synthetic peptides were used as controls. […] The sample was monitored at wavelength 206nm at a flow rate of 1ml/minute with phosphate buffer (0.1M) pH 7.1. […] They represent the ability of the peptides to dissociate the IgA-α1AT complex in vitro. In these experiments, the base-lines level comprises a complex : free IgA ratio of 14% . The minimum concentration of peptide taken to produce a positive dissociation effect is that which results in a complex: free IgA ratio at 20%. In the results tables, all the peptide values are expressed in µMoles.

[1] = system: mouse macrophage cell line (PU 518); assay: Macrophage inhibition assay: IgA-α1AT complex-stimulated release of lysosomal enzymes; format: cell-based; conditions: Table 5, head prints no unit, b70 says all values of the results tables are in µMoles, concentration needed to prevent 50% release of β-glucoromidase
Description: A mouse macrophage cell line (PU 518) was stimulated to release lysosomal enzymes by the addition of purified human IgA-α1AT complex. The degree to which this release was then inhibited by the peptides or other drugs was investigated, with the degree of inhibition being indicative of activity; the concentration of peptide or other test drugs giving 50% inhibition being recorded. Briefly the method was as follows:
25µl of peptide or drug was double diluted in […] + 10% foetal calf serum (FCS) in a sterile tissue culture 96 well plate. 25µl of IgA-α1AT complex in RPMI 1640 +10% FCS at about 0.2mg/ml was then added to all wells. 50µl of cells at a concentration of 2 x 10^6 cells/ml in RPMI 1640 + 10% FCS was then added to each well.
Control wells of cells alone and cells + IgA-α1AT complex were also prepared. The plate was then gently mixed and incubated overnight (16hr) at 37°C in a 4% CO2 atmosphere. Plates were then centrifuged at 1200 rpm for 10 minutes in a bench top centrifuge.
40µl of supernatant was then taken from each well and added to a 96 well polystyrene assay plate, to which was added 40µl of 160mM acetate buffer (pH 4.3) containing 2mM phenolphthalein-β-D-glucuronic acid. To obtain a standard curve, dilutions of phenolphthalein in acetate buffer from 100-5µg/ml were also added to separate wells in the assay plate.
The plates were then incubated at 37°C for 4 hours before 150µl of 0.2M glycine/NaOH buffer (pH 10.6) containing 0.2M NaCl was added to stop the reaction.
Plates were then shaken for 3 minutes before the optical density at 570nm was read on a plate reader, and the amount of β-D-glucuronic acid released from the cells calculated. The concentration of peptide or drug giving 50% inhibition of release was then noted.
The results for the macrophage inhibition assays are expressed as the concentration needed to prevent 50% release of β-glucoromidase.

[2] = system: alternative complement (C3) pathway; assay: Inhibition of C3-activation: preventing IgA-α1AT complex from activating the alternative complement pathway, rabbit erythrocyte haemolysis read-out; format: biochemical, human; conditions: Table 5; minimum concentration needed to prevent C3 activation

For `CC(C)(S)[C@@H](N)C(=O)O` [D-Penicillamine], the “HPLC minimum” value (IgA-α1AT complex) was 250 µM, the IC50 [1] was 500 µM and the “C' minimum” value [2] was 31 µM.
